Reference: patent US20260256909A1, “COMBINATION OF A BTN3A ACTIVATING ANTIBODY, A BCL2 INHIBITOR AND HYPOMETHYLATING AGENT FOR USE IN TREATING CANCER” (Imcheck Therapeutics, priority 2022, published 2026)
pEC50: −log10 of the molar value.

What was measured:
Type in all cases: cell-based, human
[1] = tested on: KG1a AML cell line; assay: Sensitivity of KG1a AML cell line (Cell Titer Glo luminescence); details: for pEC50: Homo sapiens, KG-1a, 48 h, 2 days treatment, luminescence, read-out: EC50 on KG1a AML cells; for mean survival of KG1a AML cells: Venetoclax at 5 μM and/or 5-Azacytidine at 10 μM, 2 days
Experimental: First, to assess the sensitivity of KG1a AML cell line to Venetoclax and 5-Azacytidine treatment in vitro, cells were treated with increasing concentrations of Venetoclax (0-5 μM), 5-Azacytidine (0-10 μM) or the combination for 2 days in cell culture medium (alpha-MEM+Glutamax supplemented with 20% Fetal Bovine Serum (FBS) and 1 mM Sodium Pyruvate). On day 2, cells were centrifuged at 1800 rpm for 5 minutes and the supernatant discarded. Cells were lysed with Cell Titer Glo reagent (Promega), and ATP amount was monitored as a measure of living cells using luminescence.

[2] = tested on: Raji (Burkitts Lymphoma); assay: Killing of Raji cells in co-culture with HD-PBMC (flow cytometry); details: co-culture with HD-PBMC ratio 5:1, 48 hrs
Experimental: (§1) Raji cells (Burkitt Lymphoma) or JVM2 cells (Chronic-B cell Leukemia) were co-cultured with HD-PBMC at ratio 5:1 in presence of ICT01 or isotype control (0.1 μg/mL or 1 μg/mL). After 6 hrs, indicated concentrations of Venetoclax, 5-Azacytidine or the combination were added to the culture. Relative numbers of live Raji (A) or JVM2 (B) were monitored after 48 hrs by flow cytometry. […] N=6, each dot represents one healthy donor, * p<0.05, ** p<0.01, 2 way ANOVA.
(§2) The effect of Venetoclax and 5-Azacytidine on BTN3A activating antibody-induced killing of Burkitt Lymphoma and Chronic-B-cell leukemia cell lines by Vγ9Vδ2 T cells was assessed by measuring the relative number of surviving target cells in a HD-PBMC-Target cell co-culture using flow cytometry.

[3] = tested on: JVM-2 (Chronic B-cell leukemia); assay: Killing of JVM-2 cells in co-culture with HD-PBMC (flow cytometry); details: co-culture with HD-PBMC ratio 5:1, 48 hrs
Experimental: as §1, §2

[4] = tested on: MOLM14 cells; assay: Killing of MOLM14 AML cells in co-culture with HD-PBMC (flow cytometry); details: ICT01 0.1 μg/mL, HD-PBMC ratio 5:1, 2 days
Experimental: KG1a or MOLM14 AML cell lines were co-cultured with HD-PBMC at ratio 5:1 in presence of ICT01 or isotype control (0.1 μg/mL). After 6 hrs, indicated concentrations of ABT-737, Navitoclax or MIK665 were added to the culture. A) Relative numbers of live KG1a cells (Mean±SEM) after 2 days of co-culture with HD-PBMC in presence of ICT01 (black) or its isotype control hIgG1S (light grey) and treatment with indicated concentration of ABT-737. B) Relative numbers of live KG1a cells (Mean±SEM) after 2 days of co-culture with HD-PBMC in presence of ICT01 (black) or its isotype control hIgG1S (light grey) and treatment with indicated concentration of Navitoclax. C) Relative numbers of live MOLM14 cells (Mean±SEM) after 2 days of co-culture with HD-PBMC in presence of ICT01 (black) or its isotype control hIgG1S (light grey) and treatment with indicated concentration of MIK665. N=6 HD, each dot represents one healthy donor, * p<0.05, 2 way ANOVA.
The effect of the three Bcl-2 family member inhibitors ABT-737, Navitoclax and MIK665, on ICT01-induced killing of AML cell lines by Vγ9Vδ2 T cells was assessed by measuring the relative number of surviving target cells in a HD-PBMC-AML cells co-culture using flow cytometry.
For assays using ABT-737 or Navitoclax, KG1a cells were used. […] Therefore, MOLM14 cells, which express MCL-1, were used in killing assays assessing the activity of ICT01 combined with MIK665.

Nc1ncn([C@@H]2O[C@H](CO)[C@@H](O)[C@H]2O)c(=O)n1 [5-Azacytidine, 4-amino-1-[(2R,3R,4S,5R)3,4-dihydroxy-5-(hydroxymethyl)oxolan-2-yl]-1,3,5-triazin-2-one]
pEC50 [1]: 5.33 | mean survival of KG1a AML cells [1]: 47.2%

CC1(C)CCC(CN2CCN(c3ccc(C(=O)NS(=O)(=O)c4ccc(NCC5CCOCC5)c([N+](=O)[O-])c4)c(Oc4cnc5[nH]ccc5c4)c3)CC2)=C(c2ccc(Cl)cc2)C1 [Venetoclax, 4-[4-[[2-(4-chlorophenyl)-4,4-dimethylcyclohexen-1-yl]methyl]piperazin-1-yl]-N-[3-nitro-4-(oxan-4-ylmethylamino)phenyl]sulfonyl-2-(1H-pyrrolo[2,3-b]pyridin-5-yloxy)benzamide]
pEC50 [1]: 5.74 | mean survival of KG1a AML cells [1]: 20.2%

ICT01: humanized BTN3A activating antibody of mAb 7.2, heavy chain SEQ ID NO: 4, light chain SEQ ID NO: 6, silent IgG1 L247F/L248E/P350S
decrease of live Raji cells as compared to hIgG1S alone condition (control) [2]: ~ 22% | decrease of live JVM-2 cells as compared to hIgG1S alone condition (control) [3]: ~ 16% | MOLM14 cell death as compared to control condition [4]: ~ 56%
